Laboratory results published in patent US20230247990A1, “Stable Botanical Antimicrobial Compositions” (The Trustees of Columbia University in the city of New York, priority 2020, published 2023).

Test: Accelerated aging method, long term stability at 45° C.
Assay type: physicochemical
Conditions: temperature higher than 40° C., including 45° C. of the accelerated aging method
Protocol: In certain embodiments, the 1 year period is achieved through simulating such conditions with the accelerated aging method. The accelerated aging method can be conducted by keeping the solutions at 45° C. for 8 weeks, which is equivalent to stability of 1 year under regular, room temperature conditions.
The accelerated aging method was conducted by keeping the solutions at 45° C. for 8 weeks, which is equivalent to stability of 1 year at regular, room temperature conditions.

In the case of `C=CCCCCCCCCC(=O)O` [Undecylenic acid], the “Solubility in solvents at elevated temperature” value is reported as “gradually precipitates”.
